How the values were obtained:
[1] = tested on: pentylenetetrazol-induced major motor seizures; assay: Pentylenetetrazol (100 mg/kg i.p.)-induced seizures in rats (Example 4); assay type: in vivo, rat
Description: At the end, all the groups were treated with 100 mg/kg i.p. of pentylenetetrazol, and the animals underwent the following control exams: 1) length of latency period to the first major motor seizures (tonic-clonic contractions of the limbs, trunk and head; falling; saliva and blood discharge from the mouth); 2) number of rats responding with major motor seizures (or protected from seizure); 3) mean duration of the major motor seizure (MMS); 4) number of rats presenting minor clonic contractions (MCC), such as a sudden flexion of the forelegs or extension of the rear legs; 5) number of rats who died within 20 minutes or 5 hours after pentylenetetrazol injection.

[2] = tested on: seizures in study strain rats; assay: Preliminary determination of the epileptogenic ED50 of pentylenetetrazol; assay type: in vivo; settings: Rattus norvegicus, ip, read-out: ED50 (dose effective on 50% of rats) of the epileptogenic agent, i.p., preliminary experiment
[3] = tested on: amphetamine-induced hyperactivity and risk-taking behaviour; assay: Amphetamine-induced behavioural model of mania, open field test in rats; settings: sodium valproate 20 mg/kg i.p., short times, preliminary experiment
[4] = daily i.p. 2 weeks: n-3 50 mg/kg, clonazepam 5 mg/kg, or same doses combined, then pentylenetetrazol 100 mg/kg i.p., mean ± SD

Question: For O=C1CN=C(c2ccccc2Cl)c2cc([N+](=O)[O-])ccc2N1 [clonazepam], which “Duration of seizures” value [1, 4] is on record?
Answer: 25 ± 6 s

Question: What about the “Latency to seizures” value [1, 4] of the same compound?
Answer: 203 ± 12 s

Question: What about the “Dead animals <20′” value ([1]; died within 20 minutes after pentylenetetrazol injection, n/10) of the same compound?
Answer: 2/10

Question: What about the “Dead animals <5 h” value ([1]; died within 5 hours after pentylenetetrazol injection, n/10) of the same compound?
Answer: 4/10

Question: And the “Rats with MMS (n/tot)” value ([1]; major motor seizures, same treatment, pentylenetetrazol 100 mg/kg i.p.)?
Answer: 1/10

Question: And the “Rats with MCC (n/tot)” value ([1]; minor clonic contractions, same treatment, pentylenetetrazol 100 mg/kg i.p.)?
Answer: 3/10

Question: For C1CCc2nnnn2CC1 [pentylenetetrazol], which ED50 [2] is on record?
Answer: 70 to 75 mg/kg

Question: For CCCC(CCC)C(=O)[O-].[Na+] [sodium valproate], which “effect of valproate alone at the dose used in the combination” value [3] is on record?
Answer: ineffective when taken alone
